As usually defined, the IC50 is the concentration at which inhibition is half-maximal.

Each structure is given as a SMILES string.

The record followed here is patent US8993756B2 (Merck Sharp & Dohme Corp., priority 2011, dated 2015).

One assay addresses JAK3 (Homo sapiens (Human), UniProt P52333). The assay is described as follows: Jak Biochemical HTRF Assay (JAK3). The conditions noted are these: recombinant GST-tagged catalytic domain, [ATP] 2.9 μM. (TR-FRET usually uses a lanthanide donor and a delayed reading to cut background.)
Another assay deals with JAK2 (Homo sapiens (Human), UniProt O60674). The assay is described as follows: Jak Biochemical HTRF Assay (JAK2). The conditions noted are these: recombinant GST-tagged catalytic domain, [ATP] 8.5 μM.
JAK2, sequence (O60674 849-1124): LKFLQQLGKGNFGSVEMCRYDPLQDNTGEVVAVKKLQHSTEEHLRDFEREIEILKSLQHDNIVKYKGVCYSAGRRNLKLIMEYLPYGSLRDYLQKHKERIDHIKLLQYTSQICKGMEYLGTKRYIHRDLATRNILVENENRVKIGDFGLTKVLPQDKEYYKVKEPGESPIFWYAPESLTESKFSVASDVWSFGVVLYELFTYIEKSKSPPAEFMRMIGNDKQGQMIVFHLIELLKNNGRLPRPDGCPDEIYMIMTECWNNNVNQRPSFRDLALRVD

JAK3, sequence (P52333 822-1111): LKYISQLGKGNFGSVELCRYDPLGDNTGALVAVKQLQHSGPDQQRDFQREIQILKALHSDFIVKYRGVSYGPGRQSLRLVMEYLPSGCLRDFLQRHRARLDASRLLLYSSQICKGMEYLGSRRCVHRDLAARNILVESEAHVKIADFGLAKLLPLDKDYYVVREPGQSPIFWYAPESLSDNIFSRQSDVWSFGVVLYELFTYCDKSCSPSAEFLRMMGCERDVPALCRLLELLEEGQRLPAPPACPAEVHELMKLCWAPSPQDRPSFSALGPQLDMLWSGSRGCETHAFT

Turning to `CCOC(=O)c1c[nH]c2ncnc(C3=CCCOC3)c12` [Example 1-88, ethyl 4-(5,6-dihydro-2H-pyran-3-yl)-7H-pyrrolo[2,3-d]pyrimidine-5-carboxylate], the IC50 at JAK3 (given as range class) is 10 to 500 nM; at JAK2 (given as range class), over 500 nM.

On to `CCOC(=O)c1c[nH]c2ncnc(-c3ccnc(OC)c3)c12` [Example 1-89, ethyl 4-(2-methoxypyridin-4-yl)-7H-pyrrolo[2,3-d]pyrimidine-5-carboxylate], for which the values for the IC50 on JAK3 (given as range class) and at JAK2 (given as range class) were 10 to 500 nM and over 500 nM, respectively.

In the case of `CCOC(=O)c1c[nH]c2ncnc(C3=CCC(C#N)CC3)c12` (centres unmarked) [Example 1-90, ethyl 4-(4-cyanocyclohex-1-en-1-yl)-7H-pyrrolo[2,3-d]pyrimidine-5-carboxylate], the IC50 on JAK3 (given as range class) and on JAK2 (given as range class) was 10 to 500 nM throughout.

As for `CCOC(=O)c1c[nH]c2ncnc(-c3cnc(OC)nc3)c12` [Example 1-91, ethyl 4-(2-methoxypyrimidin-5-yl)-7H-pyrrolo[2,3-d]pyrimidine-5-carboxylate], the IC50 on JAK3 (given as range class) was 10 to 500 nM; at JAK2 (given as range class), over 500 nM.

Regarding `CCOC(=O)c1c[nH]c2ncnc(-c3cnn(CCS(C)(=O)=O)c3)c12` [Example 1-92, ethyl 4-{1-[2-(methylsulfonyl)ethyl]-1H-pyrazol-4-yl}-7H-pyrrolo[2,3-d]pyrimidine-5-carboxylate], the figures for the IC50 at JAK3 (given as range class) and on JAK2 (given as range class) were 10 to 500 nM and over 500 nM, respectively.

`CCOC(=O)c1c[nH]c2ncnc(-c3ccc(OC)nc3)c12` [Example 1-93, ethyl 4-(6-methoxypyridin-3-yl)-7H-pyrrolo[2,3-d]pyrimidine-5-carboxylate]: the IC50 is 10 to 500 nM at JAK3 (given as range class) and over 500 nM on JAK2 (given as range class).

For the compound `CCOC(=O)c1c[nH]c2ncnc(-c3ccc(-n4cccn4)cc3)c12` [Example 1-94, ethyl 4-[4-(1H-pyrazol-1-yl)phenyl]-7H-pyrrolo[2,3-d]pyrimidine-5-carboxylate], the figures for the IC50 on JAK3 and at JAK2 were 7.5 nM and 121 nM, respectively.

In the case of `CCOC(=O)c1c[nH]c2ncnc(-c3cccc(N4CCS(=O)(=O)CC4)c3)c12` [Example 1-95, ethyl 4-[3-(1,1-dioxidothiomorpholin-4-yl)phenyl]-7H-pyrrolo[2,3-d]pyrimidine-5-carboxylate], the IC50 on JAK3 (given as range class) is 10 to 500 nM; on JAK2 (given as range class) it was over 500 nM.

With `CCOC(=O)c1c[nH]c2ncnc(-c3cccc(CN4CCOCC4)c3)c12` [Example 1-96, ethyl 4-[3-(morpholin-4-ylmethyl)phenyl]-7H-pyrrolo[2,3-d]pyrimidine-5-carboxylate], the IC50 is 10 to 500 nM on JAK3 (given as range class) and over 500 nM on JAK2 (given as range class).

Regarding `CCOC(=O)c1c[nH]c2ncnc(-c3ccc(N4CCS(=O)(=O)CC4)cc3)c12` [Example 1-97, ethyl 4-[4-(1,1-dioxidothiomorpholin-4-yl)phenyl]-7H-pyrrolo[2,3-d]pyrimidine-5-carboxylate], the IC50 on JAK3 worked out at 6.8 nM; on JAK2, 348 nM.

On to `CCOC(=O)c1c[nH]c2ncnc(C3=CCOCC3)c12` [Example 1-98, ethyl 4-(3,6-dihydro-2H-pyran-4-yl)-7H-pyrrolo[2,3-d]pyrimidine-5-carboxylate], for which the IC50 was 10 to 500 nM at JAK3 (given as range class) and over 500 nM at JAK2 (given as range class).

For the compound `CCOC(=O)c1c[nH]c2ncnc(-c3cnn(CCOC)c3)c12` [Example 1-99, ethyl 4-[1-(2-methoxyethyl)-1H-pyrazol-4-yl]-7H-pyrrolo[2,3-d]pyrimidine-5-carboxylate], the IC50 at JAK3 (given as range class) was 10 to 500 nM; at JAK2 (given as range class), over 500 nM.

With `CCOC(=O)c1c[nH]c2ncnc(-c3ccc(C(=O)NC4CCOC4)cc3)c12` (centres unmarked) [Example 1-100, ethyl 4-[4-(tetrahydrofuran-3-ylcarbamoyl)phenyl]-7H-pyrrolo[2,3-d]pyrimidine-5-carboxylate], the IC50 at JAK3 (given as range class) is 10 to 500 nM; on JAK2 (given as range class), over 500 nM.

On to `CCOC(=O)c1c[nH]c2ncnc(-c3cccc(N(C)S(C)(=O)=O)c3)c12` [Example 1-102, ethyl 4-{3-[methyl(methylsulfonyl)amino]phenyl}-7H-pyrrolo[2,3-d]pyrimidine-5-carboxylate], for which the IC50 is 10 to 500 nM at JAK3 (given as range class) and over 500 nM on JAK2 (given as range class).

On to `CCOC(=O)c1c[nH]c2ncnc(-c3cccc(-n4cccn4)c3)c12` [Example 1-103, ethyl 4-[3-(1H-pyrazol-1-yl)phenyl]-7H-pyrrolo[2,3-d]pyrimidine-5-carboxylate], for which the IC50 at JAK3 (given as range class) is 10 to 500 nM; on JAK2 (given as range class), over 500 nM.

As for `CCOC(=O)c1c[nH]c2ncnc(-c3ccc(CC#N)nc3)c12` [Example 1-104, ethyl 4-[6-(cyanomethyl)pyridin-3-yl]-7H-pyrrolo[2,3-d]pyrimidine-5-carboxylate], the IC50 was 10 to 500 nM on JAK3 (given as range class) and over 500 nM on JAK2 (given as range class).

On to `CCOC(=O)c1c[nH]c2ncnc(-c3cccc(C(C)(C)O)c3)c12` [Example 1-105, ethyl 4-[3-(1-hydroxy-1-methylethyl)phenyl]-7H-pyrrolo[2,3-d]pyrimidine-5-carboxylate], for which the figures for the IC50 at JAK3 (given as range class) and on JAK2 (given as range class) were 10 to 500 nM and over 500 nM, respectively.

In the case of `CCOC(=O)c1c[nH]c2ncnc(-c3cncc(CO)c3)c12` [Example 1-106, ethyl 4-[5-(hydroxymethyl)pyridin-3-yl]-7H-pyrrolo[2,3-d]pyrimidine-5-carboxylate], the results for the IC50 at JAK3 (given as range class) and on JAK2 (given as range class) were 10 to 500 nM and over 500 nM, respectively.

As for `CCOC(=O)c1c[nH]c2ncnc(-c3ccc(C(C)(C)O)cc3)c12` [Example 1-107, ethyl 4-[4-(1-hydroxy-1-methylethyl)phenyl]-7H-pyrrolo[2,3-d]pyrimidine-5-carboxylate], the IC50 on JAK3 (given as range class) and at JAK2 (given as range class) was 10 to 500 nM each time.

For the compound `CCCOC(=O)c1c[nH]c2ncnc(-c3ccc4cn(C)nc4c3)c12` [Example 2-1, Propyl 4-(2-methyl-2H-indazol-6-yl)-7H-pyrrolo[2,3-d]pyrimidine-5-carboxylate], the IC50 was 9 nM on JAK3 and 153 nM on JAK2.

In the case of `C=CCOC(=O)c1c[nH]c2ncnc(-c3ccc4cn(C)nc4c3)c12` [Example 2-2, Prop-2-en-1-yl 4-(2-methyl-2H-indazol-6-yl)-7H-pyrrolo[2,3-d]pyrimidine-5-carboxylate], the IC50 at JAK3 (given as range class) and at JAK2 (given as range class) was 10 to 500 nM each time.

As for `CCOC(=O)c1c[nH]c2ncnc(-c3cccc(NCC(F)(F)F)c3)c12` [Example 3-1, Ethyl 4-{3-[(2,2,2-trifluoroethyl)amino]phenyl}-7H-pyrrolo[2,3-d]pyrimidine-5-carboxylate], the IC50 at JAK3 (given as range class) is 10 to 500 nM; at JAK2 (given as range class) it was over 500 nM.

For the compound `CCOC(=O)c1c[nH]c2ncnc(-c3ccc(C)c(NCC(F)(F)F)c3)c12` [Example 3-2, ethyl 4-{4-methyl-3-[(2,2,2-trifluoroethyl)amino]phenyl}-7H-pyrrolo[2,3-d]pyrimidine-5-carboxylate], the IC50 was 10 to 500 nM at JAK3 (given as range class) and over 500 nM on JAK2 (given as range class).

On to `C=C(C)C(=O)Nc1cccc(-c2ncnc3[nH]cc(C(=O)OCC)c23)c1` [Example 4-1, Ethyl-4-{3-[(2-methylacryloyl)amino]phenyl}-7H-pyrrolo[2,3-d]pyrimidine-5-carboxylate], for which the figures for the IC50 on JAK3 and at JAK2 were 0.15 nM and over 1480 nM, respectively.

As for `C=C(C)C(=O)Nc1cccc(-c2ncnc3[nH]cc(C(=O)OCC)c23)c1F` [Example 4-2, Ethyl 4-{2-fluoro-3-[(2-methylacryloyl)amino]phenyl}-7H-pyrrolo[2,3-d]pyrimidine-5-carboxylate], the IC50 on JAK3 was 4 nM; on JAK2, over 1500 nM.

Consider `C=C(C)C(=O)Nc1cncc(-c2ncnc3[nH]cc(C(=O)OCC)c23)c1` [Example 4-3, Ethyl 4-{5-[(2-methylacryloyl)amino]pyridin-3-yl}-7H-pyrrolo[2,3-d]pyrimidine-5-carboxylate], for which the values for the IC50 at JAK3 and at JAK2 were 0.085 nM and over 1500 nM, respectively.

In the case of `C=C(C)C(=O)Nc1cc(-c2ncnc3[nH]cc(C(=O)OCC)c23)cc(OC)n1` [Example 4-4, Ethyl 4-{2-methoxy-6-[(2-methylacryloyl)amino]pyridin-4-yl}-7H-pyrrolo[2,3-d]pyrimidine-5-carboxylate], the IC50 at JAK3 is 0.049 nM; at JAK2, over 1500 nM.

As for `C=CC(=O)Nc1cccc(-c2ncnc3[nH]cc(C(=O)OCC)c23)c1` [Example 4-5, ethyl 4-[3-(acryloylamino)phenyl]-7H-pyrrolo[2,3-d]pyrimidine-5-carboxylate], the results for the IC50 at JAK3 and at JAK2 were 0.04 nM and 790 nM, respectively.

Consider `C/C=C/C(=O)Nc1cccc(-c2ncnc3[nH]cc(C(=O)OCC)c23)c1` [Example 4-6, ethyl 4-{3-[(2E)-but-2-enoylamino]phenyl}-7H-pyrrolo[2,3-d]pyrimidine-5-carboxylate], for which the IC50 on JAK3 was 1.6 nM; on JAK2, 483 nM.

As to `CCOC(=O)c1c[nH]c2ncnc(-c3cccc(NC(=O)CC)c3)c12` [Example 4-7, ethyl 4-[3-(propanoylamino)phenyl]-7H-pyrrolo[2,3-d]pyrimidine-5-carboxylate], the IC50 on JAK3 (given as range class) was 10 to 500 nM; at JAK2 (given as range class), over 500 nM.

Consider `C=C(CC)C(=O)Nc1cccc(-c2ncnc3[nH]cc(C(=O)OCC)c23)c1` [Example 4-8, ethyl 4-{3-[(2-methylidenebutanoyl)amino]phenyl}-7H-pyrrolo[2,3-d]pyrimidine-5-carboxylate], for which the figures for the IC50 on JAK3 and on JAK2 were 0.61 nM and over 1500 nM, respectively.

Regarding `C=C(C)C(=O)Nc1cc(-c2ncnc3[nH]cc(C(=O)OCC)c23)ccc1Cl` [Example 4-9, ethyl 4-{4-chloro-3-[(2-methylacryloyl)amino]phenyl}-7H-pyrrolo[2,3-d]pyrimidine-5-carboxylate], the IC50 on JAK3 is 0.013 nM; on JAK2, over 1500 nM.

As to `C=C(C)C(=O)Nc1cc(-c2ncnc3[nH]cc(C(=O)OCC)c23)ccc1C` [Example 4-10], the IC50 on JAK3 was 0.15 nM; at JAK2 it was over 1500 nM.

For the compound `C=CC(=O)Nc1cc(-c2ncnc3[nH]cc(C(=O)OCC)c23)ccc1C` [Example 4-11, ethyl 4-[3-(acryloylamino)-4-methylphenyl]-7H-pyrrolo[2,3-d]pyrimidine-5-carboxylate], the results for the IC50 on JAK3 and on JAK2 were 0.033 nM and over 1500 nM, respectively.
